# Measurements taken from US20200315996A1 (Board of Trustees, Southern Illinois University, priority 2016, published 2020).
# Assays:
# [1] = system: MKI67 (Ki67); test: Immunohistochemistry of endometriotic lesions, MKI67 (cell proliferation); type: in vivo, mice; settings: 3 weeks; for % of MKI67 positive cells/total cells/0.007 mm^2, Stroma: control 13.8 ± 1.4
# Text: (§1) The presence and location of different proteins in the tissues obtained from the recipient mice. Samples of uterine tissue were isolated from the recipient mice, fixed by standard histological methods, and embedded in paraffin. Thin sections (5 μm) of the paraffin-embedded tissues were screened with standard immunohistochemical methods using antibodies to identify the expression of in the uterine tissues.
# (§2) Primary antibodies that recognized MKI67 (Ki67), PECAM1 (CD31), ESR1, PGR, p-CHUK (IKK), p-STAT3, NOS2 (iNOS) and PTGS2 (COX2), and Vectastain Elite ABC Kit (# PK-6101), Mouse on Mouse Basic Kit (# BMK-2202, Vector laboratories) or DyLight-conjugated secondary antibody (#711-516-152, Jackson ImmunoResearch Lab) were used to show the presence of the proteins in the tissues, which were examined under microscopes.
# The primary antibodies used in these analyses were: anti-MKI67 (Ki67, 1:200 dilution, 550609, BD Biosciences), anti-PECAM1 (CD31, 1:100 dilution, ab28364, Abcam), anti-ESR1 (1:100 dilution, sc-542, Santa Cruz Biotechnology), anti-PGR (1:200 dilution, RB-9017-P0, Thermo Scientific), anti-p-CHUK (IKK, 1:150 dilution, 2697, Cell Signaling Technology), anti-p-STAT3 (1:50 dilution, 9145, Cell Signaling Technology), anti-NOS2 (iNOS, 1:50 dilution, 610333, BD Biosciences) and anti-PTGS2 (COX2, 1:50 dilution, RM-9121, Thermo Scientific).
# The expression of MKI67, ESR1, PGR, p-CHUK, p-STAT3, NOS2 and PTGS2 proteins in uterine tissues, as determined by immunohistochemical analysis of uterine tissue sections, was semiquantitatively analyzed. Levels of apoptosis were analyzed by TUNEL assay and also semiquantitatively analyzed. Histological sections were obtained from 4 different lesions. For each section, three different areas measuring 0.007 mm^2 were chosen. In each of those areas, the total number of epithelial or stromal cells was counted, as was the number of cells that tested positive for expressing MKI67 (a marker of cellular proliferation), steroid receptors ESR1 and PGR, and inflammatory signaling molecules p-CHUK, p-STAT3, NOS2 and PTGS2 proteins.
# [2] = system: PECAM1 (CD31); test: Immunohistochemistry of endometriotic lesions, PECAM1 (endothelial cells); type: in vivo, mice; settings: 3 weeks, control 38.3 ± 3.6
# Text: as §1
# as §2, with “microscopes. […]” for “microscopes.”
# The expression of PECAM1, a marker of endothelial cells, was semiquantitatively analyzed using areas of 0.02 mm^2 (3 different areas counted from each section, with sections obtained from 4 different lesions), and semiquantitatively analyzed.
# [3] = system: genes related to inflammation; test: RNA sequencing and qPCR of endometriotic lesions; type: in vivo, mice; settings: 3 weeks vs control
# Method: The endometriotic lesions were screened by RNA sequencing for the expression of a variety of genes of interest. Total RNA was isolated from the lesions using the RNeasy mini kit (#74104, Qiagen). RNA quality was assessed, and RNA-sequencing (RNA-seq) were performed at the Functional Genomics Core Facility of University of Illinois. Briefly, the stranded RNA-seq libraries were prepared with IIlumina's TruSeq Stranded RNA Sample Prep kit (# RS-122-2201, Illumina). The libraries were pooled in equimolar concentration, and the pool was quantitated by qPCR and sequenced on one lane for 101 cycles on a HiSeq2500 (Illumina) using a HiSeq SBS sequencing kit (# FC-401-4002, Illumina). Fastq files were generated and demultiplexed with the bcl2fastq v1.8.4 Conversion Software (Illumina). Quantitative PCR (qPCR) was performed as described previously [Reardon, 2012]. The 5′-3′ sequences of the primer pairs (forward and reverse primer pairs) used to determine the presence of different genes are shown in Table 3. For each gene, the name of the gene, the accession number of the gene, the 5′-3′ sequence of the paired primers, and the length of the amplicon obtained is provided in Table 3. All experimental data were subjected to one-way ANOVA tests and the differences between individual means were tested by a Tukey multiple-range test using Prism 5.0 (GraphPad). qPCR data were tested by t-test using Prism 5.0. Tests of significance were performed using the appropriate error terms according to the expectation of the mean squares for error. […] Data are presented as mean with standard error of the mean (SEM).
# [4] = system: female mice; test: Effect of oral niclosamide on reproductive function (Study 2); type: in vivo
# Method: The sham surgery was performed following the same steps as the endometriosis surgery except that no donor tissues were implanted onto the peritoneal walls of those mice; only sutures were applied to the peritoneal walls.
# The recipient mice continued receiving oral daily niclosamide treatments until mouse pups were born, after which niclosamide treatment was discontinued. Three weeks after the pups were born, on postnatal day (PND) 21, the recipient mice were necropsied and the pups were weaned.
# For each mated mouse, the following parameters were measured and recorded: the time of the formation of the vaginal plug after mating (days); the length of time that the mated mouse gestated or was pregnant (days); the number of pups born to each mated mouse; and the size and volume of the endometriotic lesions harvested from the mice after necropsy. Tissues were harvested from the mice, including endometriotic lesions and peritoneal walls to analyze the expression of proteins and genes of interest.
# For each pup born to a mated mouse, its weight (g) at birth and on PND 21 was measured.
# [5] = system: rats; settings: orally for 4 weeks; cited from earlier work
# [6] = rats; cited from earlier work
smiles,measurement,setting,value
"O=C(Nc1ccc([N+](=O)[O-])cc1Cl)c1cc(Cl)ccc1O [niclosamide, 5-chloro-N-(2-chloro-4-nitrophenyl)-2-hydroxybenzamide]","% of MKI67 positive cells/total cells/0.007 mm^2, Stroma",[1]; 100 mg/kg b.w./day oral,10.9 ± 1.9%
same,"% of MKI67 positive cells/total cells/0.007 mm^2, Epithelium","[1]; 100 mg/kg b.w./day oral, control 61.6 ± 5.9, 100 mg/kg/day",50.1±7.9%
same,"% of MKI67 positive cells/total cells/0.007 mm^2, Epithelium","[1]; 100 mg/kg b.w./day oral, control 61.6 ± 5.9, listed as Niclosamide, 100 mg/kg/day",50.1 ± 7.9%
same,"% of MKI67 positive cells/total cells/0.007 mm^2, Stroma",[1]; 200 mg/kg b.w./day oral,7.9 ± 1.9%
same,"% of MKI67 positive cells/total cells/0.007 mm^2, Epithelium","[1]; 200 mg/kg b.w./day oral, control 61.6 ± 5.9, p < 0.05, 200 mg/kg/day",37.7±7.2%
same,"% of MKI67 positive cells/total cells/0.007 mm^2, Epithelium","[1]; 200 mg/kg b.w./day oral, control 61.6 ± 5.9, p < 0.05, listed as Niclosamide, 200 mg/kg/day",37.7 ± 7.2 %
same,Cell number of PECAM1 positive cells/0.02 mm^2,[2]; 100 mg/kg b.w./day oral,34.7 ± 3.6 cells/0.02 mm^2
same,Cell number of PECAM1 positive cells/0.02 mm^2,[2]; 200 mg/kg b.w./day oral,32.7 ± 2.8 cells/0.02 mm^2
same,Ccl17 level in the endometriotic lesions,[3]; 200 mg/kg b.w./day,increased
same,"expression of genes related to inflammation (Cxcl14, Lep, Lpo, Muc13, Trpc3 and Ptprz1) in the endometriotic lesions","[3]; qPCR n=6-8, 200 mg/kg b.w./day",significantly decreased
same,expression of Id4 and Wnt7a in treated lesions,"[3]; qPCR, 200 mg/kg b.w./day",reduced
same,"time to receive vaginal plug, between the groups","[4]; 0 or 200 mg/kg b.w./day oral, mated after 4 days of treatment",No significant differences
same,pregnancy and birth in recipient mice exposed to niclosamide,[4]; 200 mg/kg b.w./day oral until pups were born,became pregnant and gave birth
same,"gestational length, number of pups, and weight of pups at birth and on PND21",[4]; 200 mg/kg b.w./day oral until pups were born vs 0,did not cause any differences
same,dose that elicits no adverse effects,[5],up to 2000 mg/kg daily
same,plasma half-life,[6],7 h
